According to patent US9862716B2, “TRKA kinase inhibitors, compositions and methods thereof” (Merck Sharp & Dohme Corp., priority 2014, dated 2018):

biological target: T1, human TrkA receptor (Homo sapiens, UniProt P04629); assay: DiscoverX PathHunter TrkA functional assay (NGF-stimulated U2OS cells); type: cell-based; details: U2OS cells expressing human TrkA-PK, Shc1-EA and p75NTR; compound 1 h, then NGF at ~80% of maximal response for 3 h; luminescence
T1 construct: host or cells: U2OS cells (PathHunter cell line)
T1 sequence (P04629 33-796): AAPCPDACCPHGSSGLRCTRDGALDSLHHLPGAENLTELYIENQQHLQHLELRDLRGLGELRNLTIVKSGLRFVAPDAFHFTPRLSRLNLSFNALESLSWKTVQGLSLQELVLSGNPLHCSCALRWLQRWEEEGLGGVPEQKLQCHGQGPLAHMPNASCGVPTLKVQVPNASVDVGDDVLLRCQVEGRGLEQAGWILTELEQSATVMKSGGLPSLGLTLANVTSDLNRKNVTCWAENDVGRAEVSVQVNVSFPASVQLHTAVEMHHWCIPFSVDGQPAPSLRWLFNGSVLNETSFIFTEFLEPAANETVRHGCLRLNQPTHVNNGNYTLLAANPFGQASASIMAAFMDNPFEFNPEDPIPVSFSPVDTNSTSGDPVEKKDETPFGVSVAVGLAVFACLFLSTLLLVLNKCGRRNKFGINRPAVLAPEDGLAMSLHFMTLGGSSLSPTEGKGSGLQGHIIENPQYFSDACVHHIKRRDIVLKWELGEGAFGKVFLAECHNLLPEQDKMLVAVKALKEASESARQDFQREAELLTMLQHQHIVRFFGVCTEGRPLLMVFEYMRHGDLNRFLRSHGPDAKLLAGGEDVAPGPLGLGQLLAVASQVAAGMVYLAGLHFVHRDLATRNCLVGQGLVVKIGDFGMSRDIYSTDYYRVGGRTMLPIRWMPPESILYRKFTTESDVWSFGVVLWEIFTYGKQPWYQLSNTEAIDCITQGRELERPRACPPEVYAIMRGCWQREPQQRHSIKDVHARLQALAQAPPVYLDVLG

Structure (SMILES) | IC50 [nM]
COC1CN(Cc2ccn3c(NC(=O)c4ccc(C(F)(F)F)c(-c5ccn(C)n5)c4)c(-c4ccccc4)nc3c2)C1 [Compound 45, N-{7-[(3-methoxyazetidin-1-yl)methyl]-2-phenylimidazo[1,2-a]pyridin-3-yl}-3-(1-methyl-1H-pyrazol-3-yl)-4-(trifluoromethyl) benzamide] | 5
Cn1ccc(-c2cc(C(=O)Nc3c(-c4ccccc4)nc4ccc(CN5CC(F)C5)cn34)ccc2C(F)(F)F)n1 [Compound 47, N-{6-[(3-fluoroazetidin-1-yl)methyl]-2-phenylimidazo[1,2-a]pyridin-3-yl}-3-(1-methyl-1H-pyrazol-3-yl)-4-(trifluoromethyl) benzamide] | 8.8
CC(C)(O)c1ccn2c(NC(=O)c3cc(-c4ncccn4)c(C(F)(F)F)cc3F)c(-c3ccccc3)nc2c1 [Compound 53, 2-fluoro-N-[7-(1-hydroxy-1-methylethyl)-2-phenylimidazo[1,2-a]pyridin-3-yl]-5-pyrimidin-2-yl-4-(trifluoromethyl) benzamide] | 1.1
Cc1ccn(-c2cc(C(=O)Nc3c(-c4ccccc4)nc4cc(C(C)(C)O)ccn34)ccc2C(F)(F)F)n1 [Compound 60, N-[7-(1-hydroxy-1-methylethyl)-2-phenylimidazo[1,2-a]pyridin-3-yl]-3-(3-methyl-1H-pyrazol-1-yl)-4-(trifluoromethyl) benzamide] | 14
Cn1ccc(-c2cc(C(=O)Nc3c(-c4ccccc4)nc4cc(C5(O)CC5)ccn34)ccc2C(F)(F)F)n1 [Compound 69, N-[7-(1-hydroxycyclopropyl)-2-phenylimidazo[1,2-a]pyridin-3-yl]-3-(1-methyl-1H-pyrazol-3-yl)-4-(trifluoromethyl) benzamide] | 3.4
Cn1ccc(-c2cc(C(=O)Nc3c(-c4ccccc4)nc4cc(C(C)(C)O)ccn34)c(Cl)cc2C(F)(F)F)n1 [Compound 70, 2-chloro-N-[7-(1-hydroxy-1-methylethyl)-2-phenylimidazo[1,2-a]pyridin-3-yl]-5-(1-methyl-1H-pyrazol-3-yl)-4-(trifluoromethyl) benzamide] | 1.2
Cc1ccnc(-c2cc(C(=O)Nc3c(-c4ccccc4)nc4cc(C(C)(C)O)ccn34)c(Cl)cc2C(F)(F)F)n1 [Compound 71, 2-chloro-N-[7-(1-hydroxy-1-methylethyl)-2-phenylimidazo[1,2-a]pyridin-3-yl]-5-(4-methylpyrimidin-2-yl)-4-(trifluoromethyl) benzamide] | 7.6
CC(=O)NCc1ccn2c(NC(=O)c3ccc(C(F)(F)F)c(-c4ccn(C)n4)c3)c(-c3ccccc3)nc2c1 [Compound 79, N-{7-[(acetylamino)methyl]-2-phenylimidazo[1,2-a]pyridin-3-yl}-3-(1-methyl-1H-pyrazol-3-yl)-4-(trifluoromethyl) benzamide] | 8.2
COC(=O)NCc1ccn2c(NC(=O)c3ccc(C(F)(F)F)c(-c4ccn(C)n4)c3)c(-c3ccccc3)nc2c1 [Compound 83, methyl{[3-({[3-(1-methyl-1H-pyrazol-3-yl)-4-(trifluoromethyl)phenyl]carbonyl}amino)-2-phenylimidazo[1,2-a]pyridin-7-yl]methyl}carbamate] | 0.77
O=C(Nc1c(-c2ccccc2)nn2ccccc12)c1cc(-c2ncccn2)c(C(F)(F)F)cc1F [Compound 85, 2-fluoro-N-(2-phenylpyrazolo[1,5-a]pyridin-3-yl)-5-pyrimidin-2-yl-4-(trifluoromethyl) benzamide] | 5
N#Cc1ccc2[nH]c(-c3ccccc3)c(NC(=O)c3cc(-c4ncccn4)c(C(F)(F)F)cc3F)c2c1 [Compound 86, N-(5-cyano-2-phenyl-1H-indol-3-yl)-2-fluoro-5-pyrimidin-2-yl-4-(trifluoromethyl) benzamide] | 2.6
Cc1csc(-c2ccn3c(NC(=O)c4ccc(C(F)(F)F)c(-c5ccn(C)n5)c4)c(-c4ccccc4)nc3c2)n1 [Compound 87, 3-(1-methyl-1H-pyrazol-3-yl)-N-[7-(4-methyl-1,3-thiazol-2-yl)-2-phenylimidazo[1,2-a]pyridin-3-yl]-4-(trifluoromethyl) benzamide] | 0.68
Cn1ccc(-c2cc(C(=O)Nc3c(-c4ccccc4)nc4cc(N5CCOCC5)ccn34)ccc2C(F)(F)F)n1 [Compound 88, 3-(1-methyl-1H-pyrazol-3-yl)-N-(7-morpholin-4-yl-2-phenylimidazo[1,2-a]pyridin-3-yl)-4-(trifluoromethyl) benzamide] | 1.2
Cn1ccc(-c2cc(C(=O)Nc3c(-c4ccccc4)nc4cc(N5CCCC5)ccn34)ccc2C(F)(F)F)n1 [Compound 89, 3-(1-methyl-1H-pyrazol-3-yl)-N-(2-phenyl-7-pyrrolidin-1-ylimidazo[1,2-a]pyridin-3-yl)-4-(trifluoromethyl) benzamide] | 5
Cn1ccc(-c2cc(C(=O)Nc3c(-c4ccccc4)nc4cc(N5CCNCC5)ccn34)ccc2C(F)(F)F)n1 [Compound 90, 3-(1-methyl-1H-pyrazol-3-yl)-N-(2-phenyl-7-piperazin-1-ylimidazo[1,2-a]pyridin-3-yl)-4-(trifluoromethyl) benzamide] | 3.8
NC(=O)c1ccc2[nH]c(-c3ccccc3)c(NC(=O)c3cc(-c4ncccn4)c(C(F)(F)F)cc3F)c2c1 [Compound 92, 3-({[2-fluoro-5-pyrimidin-2-yl-4-(trifluoromethyl)phenyl]carbonyl}amino)-2-phenyl-1H-indole-5-carboxamide] | 8.7
Cc1cc(C(F)(F)F)c(-c2ccn(C)n2)cc1C(=O)Nc1c(-c2ccccc2)nc2cc([C@@H](C)O)ccn12 [Compound 93, N-{7-[(1R)-1-hydroxyethyl]-2-phenylimidazo[1,2-a]pyridin-3-yl}-2-methyl-5-(1-methyl-1H-pyrazol-3-yl)-4-(trifluoromethyl) benzamide] | 4.7
Cn1ccc(-c2cc(C(=O)Nc3c(-c4ccccc4)nn4ccc(C(C)(C)O)cc34)ccc2C(F)(F)F)n1 [Compound 96, N-[5-(1-hydroxy-1-methylethyl)-2-phenylpyrazolo[1,5-a]pyridin-3-yl]-3-(1-methyl-1H-pyrazol-3-yl)-4-(trifluoromethyl) benzamide] | 6.7
Cn1ccc(-c2cc(C(=O)Nc3c(-c4ccccc4)nc4cc(CCN)ccn34)ccc2C(F)(F)F)n1 [Compound 100, N-[7-(2-aminoethyl)-2-phenylimidazo[1,2-a]pyridin-3-yl]-3-(1-methyl-1H-pyrazol-3-yl)-4-(trifluoromethyl) benzamide] | 13

The remaining compounds from weak to strong by IC50, led by results:

IC50 [nM] | Structure (SMILES)
20 | Cn1ccc(-c2cc(C(=O)Nc3c(-c4ccccc4)nc4cc(CNC(=O)CO)ccn34)ccc2C(F)(F)F)n1 [Compound 80, N-(7-{[(hydroxyacetyl)amino]methyl}-2-phenylimidazo[1,2-a]pyridin-3-yl)-3-(1-methyl-1H-pyrazol-3-yl)-4-(trifluoromethyl) benzamide]
15 | CNC(=O)NCc1ccn2c(NC(=O)c3ccc(C(F)(F)F)c(-c4ccn(C)n4)c3)c(-c3ccccc3)nc2c1 [Compound 81, N-(7-{[(methylcarbamoyl)amino]methyl}-2-phenylimidazo[1,2-a]pyridin-3-yl)-3-(1-methyl-1H-pyrazol-3-yl)-4-(trifluoromethyl) benzamide]
11 | O=C(O)c1ccc2[nH]c(-c3ccccc3)c(NC(=O)c3cc(-c4ncccn4)c(C(F)(F)F)cc3F)c2c1 [Compound 91, 3-({[2-fluoro-5-pyrimidin-2-yl-4-(trifluoromethyl)phenyl]carbonyl}amino)-2-phenyl-1H-indole-5-carboxylic acid]
8.2 | O=C(Nc1c(-c2ccccc2)[nH]c2ccccc12)c1cc(-c2ncccn2)c(C(F)(F)F)cc1F [Compound 76, 2-fluoro-N-(2-phenyl-1H-indol-3-yl)-5-pyrimidin-2-yl-4-(trifluoromethyl) benzamide]
4.5 | Cc1cc(C(F)(F)F)c(-c2ccn(C)n2)cc1C(=O)Nc1c(-c2ccccc2)nc2cc(C(C)(C)O)ccn12 [Compound 75, N-[7-(1-hydroxy-1-methylethyl)-2-phenylimidazo[1,2-a]pyridin-3-yl]-2-methyl-5-(1-methyl-1H-pyrazol-3-yl)-4-(trifluoromethyl) benzamide]
4.1 | Cn1ccc(-c2cc(C(=O)Nc3c(-c4ccccc4)[nH]c4ccccc34)c(F)cc2C(F)(F)F)n1 [Compound 72, 2-fluoro-5-(1-methyl-1H-pyrazol-3-yl)-N-(2-phenyl-1H-indol-3-yl)-4-(trifluoromethyl) benzamide]
3.1 | Cn1ccc(-c2cc(C(=O)Nc3c(-c4ccccc4)nc4cc(CNS(C)(=O)=O)ccn34)ccc2C(F)(F)F)n1 [Compound 84, 3-(1-methyl-1H-pyrazol-3-yl)-N-(7-{[(methylsulfonyl)amino]methyl}-2-phenylimidazo[1,2-a]pyridin-3-yl)-4-(trifluoromethyl) benzamide]
2.1 | Cn1ccc(-c2cc(C(=O)Nc3c(-c4ccccc4)nc4cc(CCO)ccn34)ccc2C(F)(F)F)n1 [Compound 99, N-[7-(2-hydroxyethyl)-2-phenylimidazo[1,2-a]pyridin-3-yl]-3-(1-methyl-1H-pyrazol-3-yl)-4-(trifluoromethyl) benzamide]
1.7 | COc1ccn2c(NC(=O)c3cc(-c4ncccn4)c(C(F)(F)F)cc3F)c(-c3ccccc3)nc2c1 [Compound 59, 2-fluoro-N-(7-methoxy-2-phenylimidazo[1,2-a]pyridin-3-yl)-5-pyrimidin-2-yl-4-(trifluoromethyl) benzamide]
0.45 | Cn1ccc(-c2cc(C(=O)Nc3c(-c4ccccc4)nc4cc(C(C)(C)O)ccn34)c(F)cc2C(F)(F)F)n1 [Compound 50, 2-fluoro-N-[7-(1-hydroxy-1-methylethyl)-2-phenylimidazo[1,2-a]pyridin-3-yl]-5-(1-methyl-1H-pyrazol-3-yl)-4-(trifluoromethyl) benzamide]
0.44 | Cc1coc(-c2cc(C(=O)Nc3c(-c4ccccc4)nc4cc(C(C)(C)O)ccn34)ccc2C(F)(F)F)n1 [Compound 46, N-[7-(1-hydroxy-1-methylethyl)-2-phenylimidazo[1,2-a]pyridin-3-yl]-3-(4-methyl-1,3-oxazol-2-yl)-4-(trifluoromethyl) benzamide]
